Reference: patent US4684664A, “Derivatives of β-(4-isocyano-1,2,3,4-diepoxycyclopentyl) acrylic acid” (Kureha Kagaku Kogyo Kabushiki Kaisha, priority 1984, dated 1987)
Converted amounts (≈) assume the structure as drawn.

Key:
Format in all cases: cell-based
[1] = test system: Staphylococcus aureus FDA 209PJc-1; assay: Antibacterial activity, agar-dilution MIC, organism No. 1; settings: Staphylococcus aureus, FDA209PJC1; Organism No. 1, bouillon-agar; read-out: Minimum Inhibitory Concentration
In short: (§1)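 Specimen is incorporated into bouillon-agar medium at graded levels and the organisms are tested on these plates. The lowest level preventing growth is taken as the MIC (μg/ml of medium).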

[2] = test system: Staphylococcus aureus Terajima; assay: Antibacterial activity, agar-dilution MIC, organism No. 2; settings: Staphylococcus aureus; Organism No. 2, bouillon-agar; read-out: Minimum Inhibitory Concentration
In short: as §1

[3] = test system: Staphylococcus aureus MS 353; assay: Antibacterial activity, agar-dilution MIC, organism No. 3; settings: Staphylococcus aureus, MS353; Organism No. 3, bouillon-agar; read-out: Minimum Inhibitory Concentration
In short: as §1

[4] = test system: Streptococcus pyogenes Cook; assay: Antibacterial activity, agar-dilution MIC, organism No. 4; settings: Streptococcus pyogenes; Organism No. 4, bouillon-agar; read-out: Minimum Inhibitory Concentration
In short: as §1

[5] = test system: Escherichia coli NIHJ-JC-2; assay: Antibacterial activity, agar-dilution MIC, organism No. 5; settings: Escherichia coli, NIHJJC2; Organism No. 5, bouillon-agar; read-out: Minimum Inhibitory Concentration
In short: as §1

[6] = test system: Escherichia coli K12 C600 IAM 1264; assay: Antibacterial activity, agar-dilution MIC, organism No. 6; settings: Escherichia coli, IAM1264; Organism No. 6, bouillon-agar; read-out: Minimum Inhibitory Concentration
In short: as §1

[7] = test system: Klebsiella pneumoniae PCI-602; assay: Antibacterial activity, agar-dilution MIC, organism No. 7; settings: Klebsiella pneumoniae, PCI602; Organism No. 7, bouillon-agar; read-out: Minimum Inhibitory Concentration
In short: as §1

[8] = test system: Salmonella typhimurium IID 971; assay: Antibacterial activity, agar-dilution MIC, organism No. 8; settings: Salmonella enterica; Organism No. 8, bouillon-agar; read-out: Minimum Inhibitory Concentration
In short: as §1

[9] = test system: Salmonella typhi 901; assay: Antibacterial activity, agar-dilution MIC, organism No. 9; settings: Salmonella enterica, TYPHI, read-out: Minimum Inhibitory Concentration
In short: as §1

[10] = test system: Salmonella paratyphi-A 1015; assay: Antibacterial activity, agar-dilution MIC, organism No. 10; settings: Salmonella enterica, PARATYPHI, read-out: Minimum Inhibitory Concentration
In short: as §1

[11] = test system: Salmonella shottmuelleri 8006; assay: Antibacterial activity, agar-dilution MIC, organism No. 11; settings: Salmonella, 8006; Organism No. 11, bouillon-agar; read-out: Minimum Inhibitory Concentration
In short: as §1

[12] = test system: Salmonella enteritidis G 14; assay: Antibacterial activity, agar-dilution MIC, organism No. 12; settings: Salmonella enterica, ENTERITIDIS; Organism No. 12, bouillon-agar; read-out: Minimum Inhibitory Concentration
In short: as §1

[13] = test system: Serratia marcescens IAM 1184; assay: Antibacterial activity, agar-dilution MIC, organism No. 13; settings: Serratia marcescens, IAM1184; Organism No. 13, bouillon-agar; read-out: Minimum Inhibitory Concentration
In short: as §1

[14] = test system: Bacillus subtilis ATCC 6633; assay: Antibacterial activity, agar-dilution MIC, organism No. 14; settings: Bacillus subtilis, ATCC6633; Organism No. 14, bouillon-agar; read-out: Minimum Inhibitory Concentration
In short: as §1

[15] = test system: Pseudomonas aeruginosa IFO 3445; assay: Antibacterial activity, agar-dilution MIC, organism No. 15; settings: Pseudomonas aeruginosa, IFO3445; Organism No. 15, bouillon-agar; read-out: Minimum Inhibitory Concentration
In short: as §1

[16] = test system: Pseudomonas aeruginosa NCTC 10490; assay: Antibacterial activity, agar-dilution MIC, organism No. 16; settings: Pseudomonas aeruginosa, NCTC10490; Organism No. 16, bouillon-agar; read-out: Minimum Inhibitory Concentration
In short: as §1

[17] = test system: Pseudomonas aeruginosa PAO 1; assay: Antibacterial activity, agar-dilution MIC, organism No. 17; settings: Pseudomonas aeruginosa, PAO1; Organism No. 17, bouillon-agar; read-out: Minimum Inhibitory Concentration
In short: as §1

[18] = test system: Proteus morganii IFO 3848; assay: Antibacterial activity, agar-dilution MIC, organism No. 18; settings: Morganella morganii, IFO3848; Organism No. 18, bouillon-agar; read-out: Minimum Inhibitory Concentration
In short: as §1

[19] = test system: Proteus mirabilis IFO 3849; assay: Antibacterial activity, agar-dilution MIC, organism No. 19; settings: Proteus mirabilis, IFO3849; Organism No. 19, bouillon-agar; read-out: Minimum Inhibitory Concentration
In short: as §1

[20] = test system: Proteus vulgaris OX-19; assay: Antibacterial activity, agar-dilution MIC, organism No. 20; settings: Proteus vulgaris, OX19; Organism No. 20, bouillon-agar; read-out: Minimum Inhibitory Concentration
In short: as §1

[21] = test system: Proteus vulgaris HX-19; assay: Antibacterial activity, agar-dilution MIC, organism No. 21; settings: Proteus vulgaris, HX19; Organism No. 21, bouillon-agar; read-out: Minimum Inhibitory Concentration
In short: as §1

[22] = test system: Proteus rettgeri IFO 3850; assay: Antibacterial activity, agar-dilution MIC, organism No. 22; settings: Providencia rettgeri, IFO3850; Organism No. 22, bouillon-agar; read-out: Minimum Inhibitory Concentration
In short: as §1

[23] = test system: Enterobacter aerogenes ATCC 13048; assay: Antibacterial activity, agar-dilution MIC, organism No. 23; settings: Klebsiella aerogenes, ATCC13048; Organism No. 23, bouillon-agar; read-out: Minimum Inhibitory Concentration
In short: as §1

[24] = test system: Enterobacter cloacae 963; assay: Antibacterial activity, agar-dilution MIC, organism No. 24; settings: Enterobacter cloacae, 963; Organism No. 24, bouillon-agar; read-out: Minimum Inhibitory Concentration
In short: as §1

[25] = test system: Micrococcus luteus ATCC 9341; assay: Antibacterial activity, agar-dilution MIC, organism No. 25; settings: Micrococcus luteus, ATCC9341; Organism No. 25, bouillon-agar; read-out: Minimum Inhibitory Concentration
In short: as §1

[26] = test system: Streptococcus pyogenes IFO 3340; assay: Antibacterial activity, agar-dilution MIC, organism No. 26; settings: Streptococcus pyogenes, IFO3340; Organism No. 26, bouillon-agar; read-out: Minimum Inhibitory Concentration
In short: as §1

[27] = test system: Streptococcus faecium IFO 3826; assay: Antibacterial activity, agar-dilution MIC, organism No. 27; settings: Enterococcus faecium, IFO3826; Organism No. 27, bouillon-agar; read-out: Minimum Inhibitory Concentration
In short: as §1

[28] = test system: Mycoplasma pneumoniae IID817; assay: Antimycoplasmal activity, MIC by phenol red colour change, organism No. 28; settings: Mycoplasma, IID817; Organism No. 28, PPLO broth + 1% glucose, 37° C.; read-out: Minimum Inhibitory Concentration (MIC)
Method: Mycoplasma pneumoniae IID817 was used as the test microorganism in a culture medium prepared by adding 1% of glucose to "PPLO broth (manufactured by Difco Co.) liquid culture medium" at 37° C. with phenol red as an indicator, thereby culturing the test microorganism.

[29] = test system: Candida albicans IAM 4905; assay: Antifungal activity, agar-dilution MIC, organism No. 29; settings: Candida albicans, IAM4905; Organism No. 29, bouillon-agar; read-out: Minimum Inhibitory Concentration
In short: as §1

[30] = test system: Aspergillus niger IFO 6342; assay: Antifungal activity, agar-dilution MIC, organism No. 30; settings: Aspergillus niger, IFO6342; Organism No. 30, bouillon-agar; read-out: Minimum Inhibitory Concentration
In short: as §1

SMILES	MIC [1] [µg/mL]	MIC [2] [µg/mL]	MIC [3] [µg/mL]	MIC [4] [µg/mL]	MIC [5] [µg/mL]	MIC [6] [µg/mL]	MIC [7] [µg/mL]	MIC [8] [µg/mL]	MIC [9] [µg/mL]	MIC [10] [µg/mL]	MIC [11] [µg/mL]	MIC [12] [µg/mL]	MIC [13] [µg/mL]	MIC [14] [µg/mL]	MIC [15] [µg/mL]	MIC [16] [µg/mL]	MIC [17] [µg/mL]	MIC [18] [µg/mL]	MIC [19] [µg/mL]	MIC [20] [µg/mL]	also measured
[C-]#[N+]C12CC3(/C=C/C(=O)Nc4ccccc4C(N)=O)OC3C1O2 (stereo not drawn) [compound 62]	12.5 (≈ 40.2 µM)	50 (≈ 161 µM)	12.5 (≈ 40.2 µM)	> 200	> 200	> 200	3.13 (≈ 10.1 µM)	50 (≈ 161 µM)	25 (≈ 80.3 µM)	25 (≈ 80.3 µM)	25 (≈ 80.3 µM)	50 (≈ 161 µM)	> 200	25 (≈ 80.3 µM)	> 200	> 200	> 200	12.5 (≈ 40.2 µM)	> 200	3.13 (≈ 10.1 µM)	MIC [21]: 3.13 µg/mL (≈ 10.1 µM); MIC [22]: > 200 µg/mL; MIC [23]: > 200 µg/mL; MIC [24]: > 200 µg/mL; MIC [25]: 25 µg/mL (≈ 80.3 µM); MIC [26]: 6.25 µg/mL (≈ 20.1 µM); MIC [27]: > 200 µg/mL; MIC [28]: < 0.2 µg/mL; MIC [29]: 100 µg/mL (≈ 321 µM); MIC [30]: 100 µg/mL (≈ 321 µM)
[C-]#[N+]C12CC3(/C=C/C(=O)Nc4ccc(S(N)(=O)=O)cc4)OC3C1O2 (stereo not drawn) [compound 63]	3.13 (≈ 9.01 µM)	25 (≈ 72 µM)	3.13 (≈ 9.01 µM)	> 200	> 200	> 200	3.13 (≈ 9.01 µM)	100 (≈ 288 µM)	50 (≈ 144 µM)	12.5 (≈ 36 µM)	12.5 (≈ 36 µM)	25 (≈ 72 µM)	> 200	50 (≈ 144 µM)	> 200	> 200	> 200	3.13 (≈ 9.01 µM)	> 200	1.56 (≈ 4.49 µM)	MIC [21]: 1.56 µg/mL (≈ 4.49 µM); MIC [22]: 6.25 µg/mL (≈ 18 µM); MIC [23]: > 200 µg/mL; MIC [24]: > 200 µg/mL; MIC [25]: 25 µg/mL (≈ 72 µM); MIC [26]: 6.25 µg/mL (≈ 18 µM); MIC [27]: > 200 µg/mL; MIC [28]: < 0.2 µg/mL; MIC [29]: 100 µg/mL (≈ 288 µM); MIC [30]: 100 µg/mL (≈ 288 µM)
[C-]#[N+]C12CC3(/C=C/C(=O)Nc4ccc5c(c4)OCO5)OC3C1O2 (stereo not drawn) [compound 64]	0.2 (≈ 0.64 µM)	0.78 (≈ 2.5 µM)	0.2 (≈ 0.64 µM)	12.5 (≈ 40 µM)	25 (≈ 80.1 µM)	12.5 (≈ 40 µM)	0.2 (≈ 0.64 µM)	6.25 (≈ 20 µM)	3.13 (≈ 10 µM)	0.39 (≈ 1.25 µM)	0.39 (≈ 1.25 µM)	3.13 (≈ 10 µM)	50 (≈ 160 µM)	6.25 (≈ 20 µM)	> 200	> 200	> 200	6.25 (≈ 20 µM)	> 200	0.2 (≈ 0.64 µM)	MIC [21]: 0.05 µg/mL (≈ 0.16 µM); MIC [22]: 3.13 µg/mL (≈ 10 µM); MIC [23]: > 200 µg/mL; MIC [24]: > 200 µg/mL; MIC [25]: 0.05 µg/mL (≈ 0.16 µM); MIC [26]: 1.56 µg/mL (≈ 5 µM); MIC [27]: 12.5 µg/mL (≈ 40 µM); MIC [28]: < 0.2 µg/mL; MIC [29]: 0.39 µg/mL (≈ 1.25 µM); MIC [30]: 6.25 µg/mL (≈ 20 µM)
[C-]#[N+]C12CC3(/C=C/C(=O)Nc4ccc5c(c4)CCC5)OC3C1O2 (stereo not drawn) [compound 75]	0.39 (≈ 1.26 µM)	1.56 (≈ 5.06 µM)	0.78 (≈ 2.53 µM)	> 200	> 200	> 200	0.78 (≈ 2.53 µM)	> 200	> 200	0.78 (≈ 2.53 µM)	1.56 (≈ 5.06 µM)	> 200	> 200	1.56 (≈ 5.06 µM)	> 200	> 200	> 200	3.13 (≈ 10.2 µM)	> 200	1.56 (≈ 5.06 µM)	MIC [21]: 0.78 µg/mL (≈ 2.53 µM); MIC [22]: > 200 µg/mL; MIC [23]: > 200 µg/mL; MIC [24]: 200 µg/mL (≈ 649 µM); MIC [25]: 200 µg/mL (≈ 649 µM); MIC [26]: 0.78 µg/mL (≈ 2.53 µM); MIC [27]: 1.56 µg/mL (≈ 5.06 µM); MIC [28]: < 0.2 µg/mL; MIC [29]: 200 µg/mL (≈ 649 µM); MIC [30]: 200 µg/mL (≈ 649 µM)
